Experimental findings from ChEMBL document CHEMBL5649166, “RIP3 induces apoptosis independent of pronecrotic kinase activity” (Mol Cell, 2014) are described below.

The test system of data set [1] is SVEC4-10. In words: Induction of apoptosis in mouse SVEC4-10 cells transfected with MCMV M45-encoded vIRA incubated for 18 hrs by Cell Titer-Glo luminescent cell viability assay. The data set is classed as toxicity, cell-based. As to conditions: svec4-10, 18 h. For orientation: Cellular ATP, detected with luciferase, serves as a proxy for viable cell number.
For data set [2], the system named is MEF. Put plainly: Induction of apoptosis in TNF-/- MEF cells incubated for 18 hrs by Cell Titer-Glo luminescent cell viability assay. As to conditions: mouse. The data set is classed as toxicity, cell-based.
The subject of data set [3] is SVEC4-10. Put plainly: Inhibition of DAI-induced necroptosis in MCMV M45mutRHIM infected mouse SVEC4-10 cells assessed as increase in cell viability at 10 uM incubated for 18 hrs by Cell Titer-Glo luminescent cell viability assay. The data set is classed as functional, cell-based.
A further data set has as its system L929. Put plainly: Induction of apoptosis in mouse L929 cells transfected with RIP3 shRNA at 10 uM incubated for 18 hrs by Cell Titer-Glo luminescent cell viability assay. Format: toxicity, cell-based. Particulars: l929, 18 h.
The test system of data set [4] is 3T3SA. Put plainly: Induction of apoptosis in mouse 3T3SA cells incubated for 18 hrs in presence of Nec-1 by Cell Titer-Glo luminescent cell viability assay. The data set is classed as toxicity, cell-based.
Data set [5] deals with 3T3SA. In words: Induction of apoptosis in RIP3shRNA transfected mouse 3T3SA cells co-transfected with shRNA-resistant RIP3 T257A mutant pre-tranfected for 16 hrs followed by compound addition and measured after 18 hrs in presence of zVAD by Cell Titer-Glo luminescent cell viability assay. Format: toxicity, cell-based.
Data set [6] deals with 3T3SA. In words: Induction of apoptosis in vICA expression plasmid transfected mouse 3T3SA cells co-transfected with shRNA-resistant empty vector incubated for 12 hrs by Cell Titer-Glo luminescent cell viability assay. The data set is classed as toxicity, cell-based.
Data set [7] deals with 3T3SA. In words: Induction of apoptosis in mouse 3T3SA cells in presence of vIRA by Cell Titer-Glo luminescent cell viability assay. The data set is classed as toxicity, cell-based.
The test system of data set [8] is MEF. Put plainly: Induction of apoptosis in cFLIPL-/- MEF cells incubated for 18 hrs by Cell Titer-Glo luminescent cell viability assay. Format: toxicity, cell-based. Particulars: mouse.

The source made the active and inactive calls. The rule behind the calls is not given here.

With `CC(C)S(=O)(=O)c1ccc2nccc(Nc3ccc4scnc4c3)c2c1`, the Activity result in the data set with SVEC4-10 [1] was “Non-Toxic”; in the data set on MEF [2] it was “Toxic”; with L929, “Non-Toxic”; in the data set with 3T3SA [4], “Non-Toxic”; in the data set on 3T3SA [5], “Non-Toxic”; with 3T3SA [6], “Non-Toxic”. The Activity entry in the data set on 3T3SA [7] and with MEF [8] was “Non-Toxic” each time. The inhibition result with SVEC4-10 [3] was “inactive”.
